Entries after “also recorded” stand apart in the source; their conditions may differ.
Key:
HHSEC = experiment: Colorimetric (XTT) cell viability assay in HHSEC; format: cell-based, human; details: for toxicity to HHSEC (ranking): XTT viability, FIG. 33B
Protocol: Cell viability assay was performed with a XTT Viability Kit (Cell Signaling Technology, 9095) according to the manufacturer's instructions. HHSEC were seeded in three black-walled 96-well plates (Corning, 3603) with cell density≥12,000 cells per well.
The cells were incubated for 24 hours at 37° C., 5% CO2 in endothelial growth media (Cell Application Inc, 211-500). After 24 hours, old media was removed and 100 μL of fresh media was added to each well. Drugs were dissolved in DMSO; a 1.1 mM stock solution was made by diluting drug in DPBS (11% DMSO, v/v). The 1.1 mM stock was serially diluted with 3-fold dilutions. DMSO volumes were balanced to 11% DMSO (v/v). A multichannel pipette was used to add 10 μL of drug or control stocks simultaneously (i.e., one column per drug per plate). The final maximum concentration of drug was 100 μM. Plates were incubated for 21 hours at 37° C., 5% CO2. After incubation, 50 μL of XTT solution were added to each well and incubated for three hours to maximize differences in signal. Absorbance was measured at 462 and 620 nm with a spectrophotometer (Molecular Devices, Spectramax Plus 384). Background absorbance at 620 nm was subtracted from maximum peak at 462 nm.

[1] = tested on: CXCL1 and CCL2 mRNA expression; experiment: Murine LPS model of mild liver inflammation, qPCR of CXCL1 and CCL2 mRNA; format: in vivo; details: mice, drug given one hour before LPS; for CCL2 mRNA expression versus LPS control: several doses
Protocol: BRD4 inhibitors were introduced to murine models of mild liver inflammation induced by LPS. The BRD4 inhibitors acted as prophylactic agents to prevent the increased expression of CXCL1 and CCL2. […] RNA extraction was performed with RNeasy kit (Qiagen 74104) from cells and mouse tissue according to the manufacturer's instructions. RNA Quantification was performed with spectrophotometry (NanoDrop, Thermo Scientific). 500 ng of mRNA was used for cDNA synthesis with dNTP and oligo primer using SuperScript™ III (Invitrogen 18080-093) for reverse transcription per the manufacturer's protocol. Real-Time PCR was performed from cDNA using IQ SYBR Green Mix (Biorad 1725121) on the 7500 Real-Time PCR system (Applied Biosystems), according to the manufacturer's instructions. Amplification of GAPDH and B-actin was performed for respective samples as internal controls. Each experiment was done in duplicates.

BRD4 BD1 = BRD4 BD1 (Homo sapiens, UniProt O60885); experiment: BRD4 BD1 affinity (IC50); format: binding; details: ratio of BD2 and BD1 IC50
[2] = tested on: alcohol/LPS-induced liver inflammation; experiment: Multiple alcohol binge with LPS mouse model; format: in vivo, mice; details: UMN627 22 mg/kg IP
Protocol: mRNA levels were quantified by real-time reverse transcription PCR. RNA extraction was performed with RNeasy kit (Qiagen 74104) from cells and mouse tissue according to the manufacturer's instructions. RNA Quantification was performed with spectrophotometry (NanoDrop, Thermo Scientific). 500 ng of mRNA was used for cDNA synthesis with dNTP and oligo primer using SuperScript™ III (Invitrogen 18080-093) for reverse transcription per the manufacturer's protocol. Real-Time PCR was performed from cDNA using IQ SYBR Green Mix (Biorad 1725121) on the 7500 Real-Time PCR system (Applied Biosystems), according to the manufacturer's instructions. Amplification of GAPDH and B-actin was performed for respective samples as internal controls. Each experiment was done in duplicates.
Right lobes of all mouse livers were fixed in 10% formalin and embedded in paraffin and cut into 5 μm sections. Slides were deparaffinized and underwent antigen retrieval (IHC-Tek IW-1000). Slides were treated with hydrogen peroxide for 10 minutes before blocking in 5% bovine serum albumin in phosphate-buffered saline (PBS) for 1 hour at room temperature. Samples were then incubated overnight at 4° C. with rabbit anti-MPO antibody (Abcam ab9535) at 1:25. Slides were then blocked with Avidin and Biotin (Vector SP-2001) for 15 minutes each before treatment with biotinylated secondary antibody horse anti-Rabbit (Vector BA-1100) at 1:200 for 1 hour at room temperature. Slides were then treated with
ABC reagent (Vector PK-7100) for 30 minutes before treatment with DAB reagent (Vector SK-4100) for 5 minutes. Counterstain was performed with hematoxylin stain and dehydrated in ethanol and xylene. Images were acquired using a Zeiss LSM 780 confocal microscope at 10× magnification, 5 images per slide (Carl Zeiss MicroImaging, Jena, Germany).
Liver sections from the left lobe of all mouse livers were embedded in OCT (Sakura 4583) and flash frozen. Frozen tissue was sectioned into 10 μm slices, fixed in 10% formalin and stained with BODIPY 493/503 (Invitrogen D3922) or Oil-red (Sigma 00625) and counterstained with 4′,6-diamidino-2-phenylindole (DAPI) (Sigma D9542) or hematoxylin, respectively. Representative images were obtained with microscopy in one session under same settings (Carl Zeiss MicroImaging, Jena, Germany), 3 images per slide. The proportion of tissue stained with BODIPY, or Oil-red content was quantified with ImageJ macro commands for standardization. For BODIPY staining, FITC channel intensity was measured across the whole image, and average intensities of images were normalized to the average of all control samples. For Oil Red staining, red staining was quantified above a pre-selected threshold, and average intensities of images were normalized to the average of all control samples. […]

[3] = tested on: CXCL chemokine expression in LSECs; experiment: CXCL chemokine expression by qPCR in LSECs with or without TNFα stimulation; format: cell-based, human; details: LSECs pretreated with inhibitor
Protocol: LSECs were thawed and cultured according to standard cell culture conditions and according to manufacture instruction (ScienCell). Briefly, LSECs are plated at low confluency and cultured in Endothelial cell medium (Cell 211-500). Fresh medium changed every other day and cells are split when close to confluency. For TNFα stimulation experiments, low passage cells were plated at 70% confluency and cultured overnight. Serum starvation was performed by changing cells to low-serum medium (0.5% FBS in basal endothelial medium (Lonza CC-3121)) for 2 hours. Human TNFα at concentration 10 ng/mL was added to low-serum medium and incubated with cells for 90 minutes before cells were collected and assayed for downstream analysis. […] Inhibitors were added at concentrations indicated to low-serum medium, and cells were incubated in inhibitor containing medium for 2 hours. After inhibitor treatment, medium change was performed with TNFα (Peprotech 300-01A) at 10 ng/ml or control low-serum medium for 90 minutes incubation. LSECs were then collected for analysis.
mRNA levels were quantified by real-time reverse transcription PCR. RNA extraction was performed with RNeasy kit (Qiagen 74104) from cells and mouse tissue according to the manufacturer's instructions. RNA Quantification was performed with spectrophotometry (NanoDrop, Thermo Scientific). […]

[4] = among treatment groups, 22 mg/kg

With `CCc1cc(C)cc(Oc2nccc(-c3c(-c4ccc(C(F)(F)F)cc4)ncn3[C@H]3CCN(CCN(C)C)C3)n2)c1` [9-209] the “toxicity to HHSEC (ranking)” value (HHSEC) was “least toxic”.
With `CCc1cc(C)cc(Oc2nccc(-c3c(-c4ccc(C(F)(F)F)cc4)ncn3C3CCN(CCN(C)C)CC3)n2)c1` [9-73] the “toxicity to HHSEC (ranking)” value (HHSEC) was “least toxic”.
`Cc1cc(C)cc(Nc2nccc(-c3c(-c4ccc(C(F)(F)F)cc4)ncn3C3CCN(CCN)CC3)n2)c1` [UMN627] was tested, and the “IC50 for CCL2 mRNA expression” value [1] was 8.8 mg/kg, the “IC50 for CXCL1 mRNA expression” value [1] was 10.9 mg/kg and the “CCL2 mRNA expression versus LPS control” value [1] was “No significant differences were found”. The “affinity for BRD4 BD1 over BRD4 BD2” value (BRD4 BD1) was “over 20 fold”, the “liver neutrophil infiltration (MPO IHC)” value ([2]; alcohol binges/LPS mice) was “Attenuated” and the “liver CXCL chemokine (and Ly6g) expression by qPCR” value ([2]; alcohol binges/LPS mice, 22 mg/kg) was “attenuated”. For the same molecule, the “serum ALT levels” value [2, 4] was “no significant changes; also recorded: did not show statistical difference”, the “steatosis (BODIPY 493/503 staining)” value [2, 4] was “no significant changes; also recorded: not significantly correlated” and the “CXCL chemokine expression in LSECs” value [3] was “showed efficacy in CXCL suppression”.
`Cc1cc(C)cc(Oc2cccc(-c3c(C)nnn3C3CCNCC3)n2)c1` [AC4118] was tested, and the “IC50 for chemokine expression (chemokine not specified)” value [1] was under 5 mg/kg, the “CCL2 mRNA expression versus LPS control” value [1] was “significantly reduced CCL2 expression at higher concentrations compared to UMN627” and the “toxicity to HHSEC (ranking)” value (HHSEC) was “least toxic”.
With `Cc1cc(C)cc(Nc2nccc(-c3c(-c4ccc(C(F)(F)F)cc4)ncn3C3CCN(CCCN(C)CCNC(=O)CN4CCC(n5nnc(C)c5-c5cccc(Oc6cc(C)cc(C)c6)n5)CC4)CC3)n2)c1` [9-169] the EC50 (HHSEC; Homo sapiens, read-out: EC50, concentration that causes 50% toxicity to HHSEC, XTT, 21 + 3 hours incubation) was under 4 µM.
In the case of `Cc1cc(C)cc(Oc2cccc(-c3c(C)nnn3C3CCN(CCN(C)C)CC3)n2)c1` [AC6027], the “toxicity to HHSEC (ranking)” value (HHSEC) is reported as “least toxic”.
In the case of `Cc1nnn(C2CCN(CCN(C)C)CC2)c1-c1cccc(Oc2cc(Br)ccc2Br)n1` [AC6026], the “toxicity to HHSEC (ranking)” value (HHSEC) is reported as “least toxic”.
